Experimental findings from patent US10570184B2, “GLP-1/glucagon receptor co-agonists for medical use” (Novo Nordisk A/S, priority 2014, dated 2020) are described below.

By EC50 is commonly meant the concentration giving half of the maximal effect.

Each structure is given as a SMILES string. Starred links: 1 amine or outer side, 2 acyl side, 3 side chain; linkers in the order of their positions; H or OH if unused. Non-standard residues stand in square brackets, D forms with d. Residues, ends and D or L forms follow the SMILES beside them. Groups on a side chain read outwards from the residue. *: point of attachment. C18 diacid = O=C(O)CCCCCCCCCCCCCCCCC(=O)*; γGlu = O=C(O)[C@H](CCC(=O)[*:2])N[*:1]; Ac4c = NC1(C(=O)O)CCC1; AEEA = NCCOCCOCC(=O)O; Aib = CC(C)(N)C(=O)O

T1 sequence (P47871 26-477): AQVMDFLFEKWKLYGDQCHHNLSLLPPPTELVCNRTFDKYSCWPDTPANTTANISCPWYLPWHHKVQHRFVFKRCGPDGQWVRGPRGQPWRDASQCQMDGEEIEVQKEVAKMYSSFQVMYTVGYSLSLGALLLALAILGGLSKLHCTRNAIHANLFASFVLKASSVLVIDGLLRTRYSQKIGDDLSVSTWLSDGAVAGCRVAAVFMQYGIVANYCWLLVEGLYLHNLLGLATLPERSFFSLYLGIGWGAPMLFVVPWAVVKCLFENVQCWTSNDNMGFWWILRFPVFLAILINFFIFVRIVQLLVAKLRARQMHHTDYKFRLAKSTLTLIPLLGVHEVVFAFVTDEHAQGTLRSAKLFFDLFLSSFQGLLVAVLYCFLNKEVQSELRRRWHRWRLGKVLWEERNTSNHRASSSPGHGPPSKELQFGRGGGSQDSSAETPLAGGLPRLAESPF

The experiment has as its target T1, human glucagon receptor (Homo sapiens, UniProt P47871).
T1 construct: expressed in transfected cells; host or cells: membranes of BHK cells, clone BHK hGCGR A3*25
The experiment is described as follows: Assay (I)(b) glucagon receptor activation, CRE luciferase reporter gene assay in BHK cells. It is filed as cell-based. Particulars: without presence of serum albumin; read-out: GlucagonR EC50 (pM), [Assay (I)(b)]. The method, then: The purpose of this example was to test the activity or potency, of the glucagon derivatives of the invention, in vitro. The in vitro potency is the measure of human GLP-1 receptor (GLP-1R) or glucagon receptor (glucagonR) activation, respectively, in a whole cell assay. In vitro potency was determined by measuring the response of human GLP-1 or glucagon receptor, respectively, in a reporter gene assay. The assay was performed in a stably transfected BHK cell line that expresses either the human GLP-1 receptor or the human glucagon receptor and contains the DNA for the cAMP response element (CRE) coupled to a promoter and the gene for firefly luciferase (CRE luciferase). […] When assay incubation was completed, the luciferase substrate (luciferin) was added and the enzyme converted luciferin to oxyluciferin and produces bioluminescence. The luminescence was measured as the readout for the assay. The cells used in this assay (clone pLJ6′-4-25) were BHK cells with BHK570 as a parent cell line expressing the CRE luciferase gene (clone BHK/KZ10-20-48) and were established by further transfection with the human glucagon receptor (clone pLJ6′ in pHZ-1 vector). The cells were cultured at 5% CO2 in DMEM medium with 10% FBS, 1×GlutaMAX, 1 mg/ml G418, 240 nM MTX (methotrexate) and 1% pen/strep (penicillin/streptomycin). They were aliquoted and stored in liquid nitrogen. Before each assay, an aliquot was taken up and washed three times in PBS before being suspended at the desired concentration in assay medium. For 96-well plates the suspension was made to give a final concentration of 5×10EE3 cells/well. The following chemicals were used in the assay: Pluronic F-68 (10%) (Gibco 2404), ovalbumin (Sigma A5503), DMEM w/o phenol red (Gibco 11880-028), 1 M Hepes (Gibco 15630), Glutamax 100× (Gibco 35050) and steadylite plus (PerkinElmer 6016757). Assay Medium consisted of DMEM w/o phenol red, 10 mM Hepes, 1× GlutaMAX, 2% Ovalbumin and 0.2% Pluronic F-68. Cell stocks were thawed in a 37° C. water bath. Cells were washed three times in PBS. The cells were counted and adjusted to 5×10EE3 cells/50 μl (1×10EE5 cells/ml) in Assay Medium. A 50 μl aliquot of cells was transferred to each well in the assay plate. Stocks of the test compounds and reference compounds were diluted to a concentration of […] in Assay Medium. Compounds were diluted 10-fold to give the following concentrations: 2×10EE-6 M, 2×10EE-7 M, 2×10EE-8 M; 2×10EE-9 M, 2×10EE-10 M, 2×10EE-11 M, 2×10EE-12 M and 2×10EE-13 M. For each compound a blank assay medium control was also included. A 50 μl aliquot of compound or blank was transferred from the dilution plate to the assay plate. Compounds were tested at the following final concentrations: 1×10EE-6 M, 1×10EE-7 M, 1×10EE-8 M; 1×10EE-9 M, 1×10EE-10 M, 1×10EE-11 M and 1×10EE-12 M and 1×10EE-13 M. The assay plate was incubated for 3 h in a 5% CO2 incubator at 37° C. The assay plate was removed from the incubator and allowed to stand at room temperature for 15 min. A 100 μl aliquot of steadylite plus reagent was added to each well of the assay plate (reagent is light sensitive). Each assay plate was covered with aluminum foil to protect it from light and shaken for 30 min at room temperature. Each assay plate was read in a Perkin Elmer TopCount NXT instrument. The data from the TopCount instrument was transferred to GraphPad Prism software. The software performed a non-linear regression (log(agonist) vs response-Variable slope (four parameter)). EC50 values were calculated by the software and reported in pM.
(In general: A reporter such as luciferase makes a cellular process visible.)
With `CC[C@H](C)[C@H](NC(=O)[C@H](CC(C)C)NC(=O)[C@H](Cc1c[nH]c2ccccc12)NC(=O)[C@H](CCC(N)=O)NC(=O)[C@@H](NC(=O)[C@H](Cc1ccccc1)NC(=O)[C@H](CCC(=O)O)NC(=O)[C@H](CCCNC(=N)N)NC(=O)[C@H](C)NC(=O)[C@H](CCCNC(=N)N)NC(=O)[C@H](CCCNC(=N)N)NC(=O)[C@H](CO)NC(=O)[C@H](CCC(=O)O)NC(=O)[C@H](CC(C)C)NC(=O)[C@H](Cc1ccc(O)cc1)NC(=O)[C@H](CCCCN)NC(=O)[C@H](CO)NC(=O)[C@H](CC(C)C)NC(=O)[C@H](CC(=O)O)NC(=O)[C@H](CO)NC(=O)[C@@H](NC(=O)[C@H](Cc1ccccc1)NC(=O)[C@@H](NC(=O)CNC(=O)[C@H](CCC(N)=O)NC(=O)C1(NC(=O)[C@@H](N)Cc2c[nH]cn2)CCC1)[C@@H](C)O)[C@@H](C)O)C(C)C)C(=O)N[C@@H](CCCCNC(=O)COCCOCCNC(=O)COCCOCCNC(=O)CC[C@H](NC(=O)CC[C@H](NC(=O)CCCCCCCCCCCCCCCCC(=O)O)C(=O)O)C(=O)O)C(=O)N[C@H](C(N)=O)[C@@H](C)O` [Chem. 18, N^ε28-[2-[2-[2-[[2-[2-[2-[[(4S)-4-carboxy-4-[[(4S)-4-carboxy-4-(17-carboxyheptadecanoylamino)butanoyl]amino]butanoyl]amino]ethoxy]ethoxy]acetyl]amino]ethoxy]ethoxy]acetyl]-[Acb2,Leu10,Glu15,Arg20,Glu21,Ile27,Lys28]-Glucagon amide] (H-H[Ac4c]QGTFTSDLSKYLESRRAREFVQWLIK([AEEA-AEEA-γGlu-γGlu-C18 diacid])T-NH2), the concentration for a half-maximal effect (EC50) was found to be 32 pM. Under `CC[C@H](C)[C@H](NC(=O)[C@H](CC(C)C)NC(=O)[C@H](Cc1c[nH]c2ccccc12)NC(=O)[C@H](CCC(N)=O)NC(=O)[C@@H](NC(=O)[C@H](Cc1ccccc1)NC(=O)[C@H](CC(=O)O)NC(=O)[C@H](CCCNC(=N)N)NC(=O)[C@H](C)NC(=O)[C@H](CCCNC(=N)N)NC(=O)[C@H](CCCNC(=N)N)NC(=O)[C@H](C)NC(=O)[C@H](CC(=O)O)NC(=O)[C@H](CC(C)C)NC(=O)[C@H](Cc1ccc(O)cc1)NC(=O)[C@H](CCCCN)NC(=O)[C@H](CO)NC(=O)[C@H](CC(C)C)NC(=O)[C@H](CC(=O)O)NC(=O)[C@H](CO)NC(=O)[C@@H](NC(=O)[C@H](Cc1ccccc1)NC(=O)[C@@H](NC(=O)CNC(=O)[C@H](CCC(N)=O)NC(=O)C(C)(C)NC(=O)[C@@H](N)Cc1c[nH]cn1)[C@@H](C)O)[C@@H](C)O)C(C)C)C(=O)N[C@@H](CO)C(=O)N[C@@H](CCCCNC(=O)CC[C@H](NC(=O)CC[C@H](NC(=O)COCCOCCNC(=O)COCCOCCNC(=O)CC[C@H](NC(=O)CCCCCCCCCCCCCCCCC(=O)O)C(=O)O)C(=O)O)C(=O)O)C(N)=O` [Chem. 27, N^ε29-[(4S)-4-carboxy-4-[[(4S)-4-carboxy-4-[[2-[2-[2-[[2-[2-[2-[[(4S)-4-carboxy-4-(17-carboxyheptadecanoylamino)butanoyl]amino]ethoxy]ethoxy]acetyl]amino]ethoxy]ethoxy]acetyl]amino]butanoyl]amino]butanoyl]-[Aib2,Leu10,Ala16,Arg20,Ile27,Ser28,Lys29]-Glucagon amide] (H-H[Aib]QGTFTSDLSKYLDARRARDFVQWLISK([γGlu-γGlu-AEEA-AEEA-γGlu-C18 diacid])-NH2; N-terminus assumed) stands 66 pM; under `CC[C@H](C)[C@H](NC(=O)[C@H](CC(C)C)NC(=O)[C@H](Cc1c[nH]c2ccccc12)NC(=O)[C@H](C)NC(=O)[C@@H](NC(=O)[C@H](Cc1ccccc1)NC(=O)[C@H](CC(=O)O)NC(=O)[C@H](CCCNC(=N)N)NC(=O)[C@H](C)NC(=O)[C@H](CCCNC(=N)N)NC(=O)[C@H](CCCNC(=N)N)NC(=O)[C@H](C)NC(=O)[C@H](CC(=O)O)NC(=O)[C@H](CC(C)C)NC(=O)[C@H](Cc1ccc(O)cc1)NC(=O)[C@H](CCCCN)NC(=O)[C@H](CO)NC(=O)[C@H](Cc1ccc(O)cc1)NC(=O)[C@H](CC(=O)O)NC(=O)[C@H](CO)NC(=O)[C@@H](NC(=O)[C@H](Cc1ccccc1)NC(=O)[C@@H](NC(=O)CNC(=O)[C@H](CCC(N)=O)NC(=O)C(C)(C)NC(=O)[C@@H](N)Cc1c[nH]cn1)[C@@H](C)O)[C@@H](C)O)C(C)C)C(=O)N[C@@H](CCCCNC(=O)CC[C@H](NC(=O)CC[C@H](NC(=O)COCCOCCNC(=O)COCCOCCNC(=O)CC[C@H](NC(=O)CCCCCCCCCCCCCCCCC(=O)O)C(=O)O)C(=O)O)C(=O)O)C(=O)N[C@H](C(N)=O)[C@@H](C)O` [Chem. 32, N^ε28-[(4S)-4-carboxy-4-[[(4S)-4-carboxy-4-[[2-[2-[2-[[2-[2-[2-[[(4S)-4-carboxy-4-(17-carboxyheptadecanoylamino)butanoyl]amino]ethoxy]ethoxy]acetyl]amino]ethoxy]ethoxy]acetyl]amino]butanoyl]amino]butanoyl]-[Aib2,Ala16,Arg20,Ala24,Ile27,Lys28]-Glucagon amide] (H-H[Aib]QGTFTSDYSKYLDARRARDFVAWLIK([γGlu-γGlu-AEEA-AEEA-γGlu-C18 diacid])T-NH2), 7 pM. Under `CC[C@H](C)[C@H](NC(=O)[C@H](CC(C)C)NC(=O)[C@H](Cc1c[nH]c2ccccc12)NC(=O)[C@H](C)NC(=O)[C@@H](NC(=O)[C@H](Cc1ccccc1)NC(=O)[C@H](CC(=O)O)NC(=O)[C@H](CCC(N)=O)NC(=O)[C@H](C)NC(=O)[C@H](CCCNC(=N)N)NC(=O)[C@H](CCCNC(=N)N)NC(=O)[C@H](CO)NC(=O)[C@H](CCC(=O)O)NC(=O)[C@H](CC(C)C)NC(=O)[C@H](Cc1ccc(O)cc1)NC(=O)[C@H](CCCCN)NC(=O)[C@H](CO)NC(=O)[C@H](Cc1ccc(O)cc1)NC(=O)[C@H](CC(=O)O)NC(=O)[C@H](CO)NC(=O)[C@@H](NC(=O)[C@H](Cc1ccccc1)NC(=O)[C@@H](NC(=O)CNC(=O)[C@H](CCC(N)=O)NC(=O)C(C)(C)NC(=O)[C@@H](N)Cc1c[nH]cn1)[C@@H](C)O)[C@@H](C)O)C(C)C)C(=O)N[C@@H](CCCCNC(=O)CC[C@H](NC(=O)CC[C@H](NC(=O)COCCOCCNC(=O)COCCOCCNC(=O)CC[C@H](NC(=O)CCCCCCCCCCCCCCCCC(=O)O)C(=O)O)C(=O)O)C(=O)O)C(=O)N[C@H](C(N)=O)[C@@H](C)O` [Chem. 34, N^ε28-[(4S)-4-carboxy-4-[[(4S)-4-carboxy-4-[[2-[2-[2-[[2-[2-[2-[[(4S)-4-carboxy-4-(17-carboxyheptadecanoylamino)butanoyl]amino]ethoxy]ethoxy]acetyl]amino]ethoxy]ethoxy]acetyl]amino]butanoyl]amino]butanoyl]-[Aib2,Glu15,Ala24,Ile27,Lys28]-Glucagon amide] (H-H[Aib]QGTFTSDYSKYLESRRAQDFVAWLIK([γGlu-γGlu-AEEA-AEEA-γGlu-C18 diacid])T-NH2) stands 66 pM.
